Measured values taken from patent US20250026724A1, “(1,4,5-TRISUBSTITUTED 1H-PYRAZOL-3-YL)OXY-2-ALKYLTHIOALKYL ACIDS AND -ALKYL ACID DERIVATIVES, SALTS THEREOF AND USE THEREOF AS ACTIVE HERBICIDAL INGREDIENTS” (BAYER AKTIENGESELLSCHAFT, priority 2021, published 2025).

Key:
Type in all cases: in vivo
[1] = system: Triticum aestivum (TRZAS); test: Post-emergence crop plant compatibility, greenhouse pot trial
Experimental: Seeds of monocotyledonous and dicotyledonous weeds and crop plants are placed in sandy loam in plastic or organic planting pots, covered with soil and cultivated in a greenhouse under controlled growth conditions. 2 to 3 weeks after sowing, the trial plants are treated at the one-leaf stage. The compounds of the invention, formulated in the form of wettable powders (WP) or as emulsion concentrates (EC), are then sprayed onto the green parts of the plants as aqueous suspension or emulsion with addition of 0.5% additive at a water application rate equivalent to 600 l/ha. After about 3 weeks of keeping the trial plants in the greenhouse under optimum growth conditions, the effect of the preparations is rated visually in comparison to untreated controls. For example, 100% activity=the plants have died, 0% activity=like control plants.
The observed effects on selected crop plants are reported here in comparison to the untreated controls (values in %). The appendices “a”, “b” and “c” give differentiation by dosage used with otherwise the same useful plants tested.
As shown by results from Tables B1 to B19, inventive compounds of the general formula (I) in the case of post-emergence treatment have good herbicidal efficacy against harmful plants, for example Abutilon theophrasti (ABUTH), Alopecurus myosuroides (ALOMY), Amaranthus retroflexus (AMARE), Avena fatua (AVEFA), Digitaria sanguinalis (DIGSA), Echinochloa crus-galli (ECHCG), Bassia scoparia (KCHSC), Lolium rigidum (LOLRI), Matricaria inodora (MATIN), Pharbitis purpurea (PHBPU), Polygonum convolvulus (POLCO), Setaria viridis (SETVI), Veronica persica (VERPE) and Viola tricolor (VIOTR) at an application rate of 320 g of active substance or less per hectare, and good crop plant compatibility in the case of organisms such as Oryza sativa (ORYSA), Zea mays (ZEAMX), Brassica napus (BRSNW), Glycine max (GLXMA) and Triticum aestivum (TRZAS) at an application rate of 320 g or less per hectare.

[2] = system: Echinochloa crus-galli (ECHCG); test: Post-emergence herbicidal action, greenhouse pot trial; details: visual rating after about 3 weeks; for pest or weed control at 320 g/ha: read-out: Post-emergence effect at 320 g/ha against ECHCG in %
In short: (§1)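 Sandy loam pots, greenhouse; one-leaf stage (2–3 wk after sowing); WP/EC in water, 0.5% additive, 600 l/ha spray volume; ≤320 g/ha; visual score vs untreated at ~3 wk, 0–100%.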

[3] = system: Digitaria sanguinalis (DIGSA); test: as above; details: visual rating after about 3 weeks; for pest or weed control at 320 g/ha: Digitaria sanguinalis, 504 h, read-out: Post-emergence effect at 320 g/ha against DIGSA in %
In short: as §1

[4] = system: Abutilon theophrasti (ABUTH); test: as above; details: visual rating after about 3 weeks; for pest or weed control at 320 g/ha / pest or weed control at 80 g/ha: Abutilon theophrasti, 504 h; for pest or weed control at 320 g/ha: read-out: Post-emergence effect at 320 g/ha against ABUTH in %; for pest or weed control at 80 g/ha: read-out: Post-emergence effect at 80 g/ha against ABUTH in %
In short: as §1

[5] = system: Matricaria inodora (MATIN); test: as above; details: visual rating after about 3 weeks; for pest or weed control at 80 g/ha / pest or weed control at 320 g/ha: Tripleurospermum inodorum, 504 h; for pest or weed control at 80 g/ha: read-out: Post-emergence effect at 80 g/ha against MATIN in %; for pest or weed control at 320 g/ha: read-out: Post-emergence effect at 320 g/ha against MATIN in %
In short: as §1

[6] = system: Alopecurus myosuroides (ALOMY); test: as above; details: 320 g/ha, visual rating after about 3 weeks
In short: as §1

[7] = system: Polygonum convolvulus (POLCO); test: as above; details: visual rating after about 3 weeks; for pest or weed control at 80 g/ha / pest or weed control at 320 g/ha: Fallopia convolvulus, 504 h; for pest or weed control at 80 g/ha: read-out: Post-emergence effect at 80 g/ha against POLCO in %; for pest or weed control at 320 g/ha: read-out: Post-emergence effect at 320 g/ha against POLCO in %
In short: as §1

Bassia scoparia (KCHSC) = test: as above
In short: as §1

[8] = system: Amaranthus retroflexus (AMARE); test: as above; details: visual rating after about 3 weeks; for pest or weed control at 80 g/ha / pest or weed control at 320 g/ha: Amaranthus retroflexus, 504 h; for pest or weed control at 80 g/ha: read-out: Post-emergence effect at 80 g/ha against AMARE in %; for pest or weed control at 320 g/ha: read-out: Post-emergence effect at 320 g/ha against AMARE in %
In short: as §1

Lolium rigidum (LOLRI) = test: as above; details: 320 g/ha, visual rating after about 3 weeks; for pest or weed control at 320 g/ha: Lolium rigidum, 504 h, read-out: Post-emergence effect at 320 g/ha against LOLRI in %
In short: as §1

Setaria viridis (SETVI) = test: as above; details: visual rating after about 3 weeks; for pest or weed control at 320 g/ha: Setaria viridis, 504 h, read-out: Post-emergence effect at 320 g/ha against SETVI in %
In short: as §1

Avena fatua (AVEFA) = test: as above; details: 320 g/ha, visual rating after about 3 weeks; for pest or weed control at 320 g/ha: Avena fatua, 504 h, read-out: Post-emergence effect at 320 g/ha against AVEFA in %
In short: as §1

[9] = system: Pharbitis purpurea (PHBPU); test: as above; details: Ipomoea purpurea, 504 h, visual rating after about 3 weeks; for pest or weed control at 320 g/ha: read-out: Post-emergence effect at 320 g/ha against PHBPU in %; for pest or weed control at 80 g/ha: read-out: Post-emergence effect at 80 g/ha against PHBPU in %
In short: as §1

Viola tricolor (VIOTR) = test: as above; details: Viola tricolor, 504 h, read-out: Post-emergence effect against VIOTR
In short: as §1

Veronica persica (VERPE) = test: as above; details: visual rating after about 3 weeks; for pest or weed control at 320 g/ha: Veronica persica, 504 h, read-out: Post-emergence effect at 320 g/ha against VERPE in %
In short: as §1

[10] = Echinochloa crus-galli, 504 h, 320 g/ha
[11] = Bassia scoparia, 504 h, 320 g/ha, read-out: Post-emergence effect against KCHSC

| Compound | Post-emergence effect at 80 g/ha against DIGSA in % [3] [%] | pest or weed control at 320 g/ha [2, 10] [%] | pest or weed control at 320 g/ha ([3]; 320 g/ha) [%] | pest or weed control at 320 g/ha ([4]; 320 g/ha) [%] | pest or weed control at 320 g/ha [9] [%] | pest or weed control at 80 g/ha ([5]; 80 g/ha) [%] | pest or weed control at 320 g/ha ([5]; 320 g/ha) [%] | pest or weed control at 20 g/ha (Viola tricolor (VIOTR)) [%] | pest or weed control at 80 g/ha (Viola tricolor (VIOTR)) [%] | pest or weed control at 320 g/ha (Viola tricolor (VIOTR)) [%] | Post-emergence effect at 80 g/ha against SETVI in % (Setaria viridis (SETVI)) [%] | pest or weed control at 320 g/ha (Setaria viridis (SETVI); 320 g/ha) [%] | pest or weed control at 80 g/ha [9] [%] | pest or weed control at 80 g/ha ([7]; 80 g/ha) [%] | pest or weed control at 320 g/ha ([7]; 320 g/ha) [%] | pest or weed control at 80 g/ha ([8]; 80 g/ha) [%] | pest or weed control at 320 g/ha ([8]; 320 g/ha) [%] | pest or weed control at 320 g/ha (Veronica persica (VERPE)) [%] | pest or weed control at 80 g/ha ([4]; 80 g/ha) [%] | pest or weed control at 320 g/ha (Bassia scoparia (KCHSC); [11]) [%] | other results |
| --- | --- | --- | --- | --- | --- | --- | --- | --- | --- | --- | --- | --- | --- | --- | --- | --- | --- | --- | --- | --- | --- |
| COC(=O)CCOC(=O)C(Oc1nn(-c2ncccc2F)c(-c2ccc(F)nc2)c1Br)SC (racemic) [Example I-32] | 90 |  |  |  |  |  |  |  |  |  |  |  |  |  |  |  |  |  |  |  | Post-emergence effect against TRZAS (crop plant compatibility) ([1]; 20 g/ha, post-emergence, in comparison to untreated controls): 0%; Post-emergence effect at 320 g/ha against ECHCG in % ([2]; 320 g/ha): 90%; Post-emergence effect at 320 g/ha against DIGSA in % ([3]; 320 g/ha): 90%; Post-emergence effect at 80 g/ha against ABUTH in % ([4]; 80 g/ha): 80%; Post-emergence effect at 320 g/ha against ABUTH in % ([4]; 320 g/ha): 90%; Post-emergence effect at 80 g/ha against MATIN in % ([5]; 80 g/ha): 80%; Post-emergence effect at 320 g/ha against MATIN in % ([5]; 320 g/ha): 80%; Post-emergence effect at 320 g/ha against ALOMY in % [6]: 90%; Post-emergence effect at 80 g/ha against POLCO in % ([7]; 80 g/ha): 80%; Post-emergence effect at 320 g/ha against POLCO in % ([7]; 320 g/ha): 90%; Post-emergence effect against KCHSC (Bassia scoparia (KCHSC); 80 g/ha): 80%; Post-emergence effect against KCHSC (Bassia scoparia (KCHSC); 320 g/ha): 90%; Post-emergence effect at 80 g/ha against AMARE in % ([8]; 80 g/ha): 80%; Post-emergence effect at 320 g/ha against AMARE in % ([8]; 320 g/ha): 80%; Post-emergence effect at 320 g/ha against LOLRI in % (Lolium rigidum (LOLRI)): 80%; Post-emergence effect at 320 g/ha against SETVI in % (Setaria viridis (SETVI); 320 g/ha): 80%; Post-emergence effect at 320 g/ha against AVEFA in % (Avena fatua (AVEFA)): 90% |
| CCOC(=O)C(Oc1nn(-c2cc(F)ccc2F)c(-c2cncc(F)c2)c1Br)SC (stereo not shown) [Example I-03, ethyl {[4-bromo-1-(2,5-difluorophenyl)-5-(5-fluoropyridin-3-yl)-1H-pyrazol-3-yl]oxy}(methylsulfanyl)acetate] |  | 90 | 80 | 80 | 80 | 80 | 90 | 80 | 90 | 90 | 80 | 90 |  |  |  |  |  |  |  |  | Post-emergence effect at 320 g/ha against TRZAS in % ([1]; in vivo): 20% |
| COC(=O)C(Oc1nn(-c2cc(F)ccc2F)c(-c2cncc(F)c2)c1C1CC1)SC (stereo not shown) [Example I-08] |  | 80 |  |  | 90 |  | 80 | 90 | 90 | 90 |  | 90 | 80 | 90 | 90 | 80 | 80 | 90 |  |  | Post-emergence effect at 80 g/ha against VERPE in % (Veronica persica (VERPE); 80 g/ha): 80% |
| CCOC(=O)C(Oc1nn(-c2ncccc2F)c(-c2cncc(F)c2)c1Br)SC (stereo not shown) [Example I-39] | 80 | 90 | 90 | 90 | 90 | 80 | 90 | 80 | 80 | 90 | 90 | 90 | 80 | 80 | 80 | 80 | 90 | 80 | 90 | 90 | pest or weed control at 80 g/ha ([2]; Echinochloa crus-galli, 504 h, 80 g/ha, read-out: Post-emergence effect at 80 g/ha against ECHCG in %): 90%; Post-emergence action at 20 g/ha against ABUTH in % ([4]; 20 g/ha): 80%; Post-emergence effect at 20 g/ha against KCHSC in % (Bassia scoparia (KCHSC); 20 g/ha, visual rating after about 3 weeks): 80%; pest or weed control at 80 g/ha (Bassia scoparia (KCHSC); Bassia scoparia, 504 h, 80 g/ha, read-out: Post-emergence effect against KCHSC): 90%; Post-emergence effect at 20 g/ha against AMARE in % [8]: 80%; pest or weed control at 320 g/ha (Lolium rigidum (LOLRI)): 90%; pest or weed control at 320 g/ha (Avena fatua (AVEFA)): 90% |
| CSC(Oc1nn(-c2ncccc2F)c(-c2cncc(F)c2)c1C1CC1)C(=O)O (stereo not shown) [Example I-44] |  | 90 |  | 90 |  | 80 | 90 | 90 | 90 | 90 |  | 80 |  |  | 80 | 90 | 90 | 90 |  | 90 | Post-emergence effect at 20 g/ha against AMARE in % [8]: 80%; pest or weed control at 320 g/ha (Avena fatua (AVEFA)): 90% |
| CCOC(=O)C(Oc1nn(-c2ccccc2F)c(-c2ccc(F)nc2)c1C(F)(F)F)SC (stereo not shown) [Example I-46] |  | 90 | 80 | 80 |  |  | 90 | 80 | 80 | 90 |  | 80 |  |  | 80 | 80 | 80 | 80 | 80 |  | pest or weed control at 320 g/ha (Lolium rigidum (LOLRI)): 100% |
